Like-named read-outs stand apart in the source and are kept apart here.
Assays:
A. fumigatus (Af-293) [1] = assay: microbe, parasite or virus in culture; type: cell-based, Aspergillus fumigatus; settings: Aspergillus fumigatus
A. fumigatus (Af-293) [2] = assay: Kill kinetics assay; type: cell-based, Aspergillus fumigatus; settings: MIC and 4×MIC, compared to 3b and 4b
A. fumigatus (Af-293) [3] = assay: microbe, parasite or virus in culture; type: cell-based; settings: Aspergillus fumigatus, read-out: MIC A. fumigatus (Af-293)

C[C@@H]1[C@H](O)[C@@H](C)/C=C/C=C/C=C/C=C/C=C/C=C/C=C/[C@H](O[C@@H]2O[C@H](C)[C@@H](O)[C@H](N)[C@@H]2O)C[C@@H]2O[C@](O)(C[C@@H](O)C[C@@H](O)[C@H](O)CC[C@@H](O)C[C@@H](O)CC(=O)O[C@H]1C)C[C@H](O)[C@H]2C(=O)O [Amphotericin B, reference compound]
0.7 µg/mL: MIC (A. fumigatus (Af-293) [1]; read-out: MIC CaCl2) | MIC (A. fumigatus (Af-293) [1]; read-out: MIC Control) | MIC (A. fumigatus (Af-293) [1]; read-out: MIC FBS (25%)) | MIC (A. fumigatus (Af-293) [1]; read-out: MIC KCl) | MIC (A. fumigatus (Af-293) [1]; read-out: MIC NH4Cl) | MIC (A. fumigatus (Af-293) [1]; read-out: MIC NaCl) | MIC (A. fumigatus (Af-293) [3])
1.5 µg/mL: MIC (A. fumigatus (Af-293) [1]; read-out: MIC MgCl2)
mild fungicidal effect: fungicidal effect in kill kinetics (A. fumigatus (Af-293) [2])

Source: paper PMC12207910 (European journal of pharmaceutical sciences : official …, 2024)
